Active and inactive are the calls of the source.
Columns and labels:
[1] = molecular target: Peroxisome proliferator-activated receptor gamma/Nuclear receptor coactivator 2 (Homo sapiens, UniProt P37231); type: functional;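 further: agonist potency for raising coactivator recruitment to the receptor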
[2] = molecular target: Peroxisome proliferator-activated receptor gamma/Nuclear receptor coactivator 1 (Homo sapiens, UniProt P37231); type: functional;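 further: agonist potency as compounds enhance coactivator SRC-1 recruitment to PPARgamma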
Sequence of Peroxisome proliferator-activated receptor gamma/Nuclear receptor coactivator 1 (P37231 whole entry): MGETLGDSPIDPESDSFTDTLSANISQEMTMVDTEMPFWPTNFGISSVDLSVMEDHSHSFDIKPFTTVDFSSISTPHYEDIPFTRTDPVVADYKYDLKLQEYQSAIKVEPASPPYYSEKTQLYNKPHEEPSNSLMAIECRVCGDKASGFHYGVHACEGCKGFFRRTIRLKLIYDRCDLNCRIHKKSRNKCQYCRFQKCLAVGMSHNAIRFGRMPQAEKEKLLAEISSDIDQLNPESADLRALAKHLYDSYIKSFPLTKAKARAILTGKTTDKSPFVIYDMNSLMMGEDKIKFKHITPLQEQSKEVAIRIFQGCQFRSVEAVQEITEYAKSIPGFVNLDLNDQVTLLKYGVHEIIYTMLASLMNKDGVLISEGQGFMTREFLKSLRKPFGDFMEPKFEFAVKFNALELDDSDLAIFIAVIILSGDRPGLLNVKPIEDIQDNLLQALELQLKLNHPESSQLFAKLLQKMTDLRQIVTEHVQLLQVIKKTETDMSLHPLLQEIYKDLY
Sequence of Peroxisome proliferator-activated receptor gamma/Nuclear receptor coactivator 1 (Q15788 whole entry, further chain): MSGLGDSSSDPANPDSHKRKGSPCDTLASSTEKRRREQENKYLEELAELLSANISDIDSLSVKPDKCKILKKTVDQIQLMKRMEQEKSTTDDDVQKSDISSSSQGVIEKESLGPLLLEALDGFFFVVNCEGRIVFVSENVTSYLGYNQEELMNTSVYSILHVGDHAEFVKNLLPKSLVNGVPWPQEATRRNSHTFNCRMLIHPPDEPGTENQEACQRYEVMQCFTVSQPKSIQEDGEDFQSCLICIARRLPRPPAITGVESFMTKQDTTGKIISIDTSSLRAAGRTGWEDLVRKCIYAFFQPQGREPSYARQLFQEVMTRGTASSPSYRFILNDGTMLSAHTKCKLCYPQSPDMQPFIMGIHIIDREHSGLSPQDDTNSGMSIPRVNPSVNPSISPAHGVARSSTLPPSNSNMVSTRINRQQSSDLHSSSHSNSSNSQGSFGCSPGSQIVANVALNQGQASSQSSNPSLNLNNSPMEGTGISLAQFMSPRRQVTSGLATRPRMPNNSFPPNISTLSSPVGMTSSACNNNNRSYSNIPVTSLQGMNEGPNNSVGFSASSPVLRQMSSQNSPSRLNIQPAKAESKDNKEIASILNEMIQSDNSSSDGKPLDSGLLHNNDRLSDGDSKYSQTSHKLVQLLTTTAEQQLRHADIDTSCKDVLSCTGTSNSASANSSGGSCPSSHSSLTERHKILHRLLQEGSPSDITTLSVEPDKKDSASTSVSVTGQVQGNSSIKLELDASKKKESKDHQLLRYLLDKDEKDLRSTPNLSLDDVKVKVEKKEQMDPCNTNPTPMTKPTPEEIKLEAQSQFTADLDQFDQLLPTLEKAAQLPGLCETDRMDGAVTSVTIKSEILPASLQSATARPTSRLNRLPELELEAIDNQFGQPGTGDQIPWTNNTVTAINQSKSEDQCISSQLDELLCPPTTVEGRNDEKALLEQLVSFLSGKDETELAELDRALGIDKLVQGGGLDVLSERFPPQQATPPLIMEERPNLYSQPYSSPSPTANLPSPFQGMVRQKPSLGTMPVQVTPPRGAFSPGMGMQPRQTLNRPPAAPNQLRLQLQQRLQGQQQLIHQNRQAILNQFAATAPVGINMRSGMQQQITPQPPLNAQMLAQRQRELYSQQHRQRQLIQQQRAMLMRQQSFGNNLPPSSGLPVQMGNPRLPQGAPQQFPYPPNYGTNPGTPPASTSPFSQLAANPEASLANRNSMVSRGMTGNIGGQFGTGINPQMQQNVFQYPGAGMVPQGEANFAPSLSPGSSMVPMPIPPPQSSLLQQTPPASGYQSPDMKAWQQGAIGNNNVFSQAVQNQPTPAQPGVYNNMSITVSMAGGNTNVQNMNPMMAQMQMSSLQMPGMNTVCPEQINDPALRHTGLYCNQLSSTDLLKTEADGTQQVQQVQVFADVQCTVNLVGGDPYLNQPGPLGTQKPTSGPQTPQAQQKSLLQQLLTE

[3] = molecular target: Peroxisome proliferator-activated receptor gamma/Nuclear receptor coactivator 3 (Homo sapiens, UniProt P37231); type: functional;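 further: agonist potency for raising coactivator recruitment to the receptor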
Protein RecA = molecular target: T1, Protein RecA (Mycobacterium tuberculosis, UniProt P9WHJ3); experiment: Fluorescence Cell-Free Homogeneous Dose Retest to Identify Inhibitors of RecA-Intein Splicing Activity. [Related pubchem assays (depositor defined):AID2097, AID2223, AID489010, AID492950]; type: functional
T1 sequence (P9WHJ3 whole entry): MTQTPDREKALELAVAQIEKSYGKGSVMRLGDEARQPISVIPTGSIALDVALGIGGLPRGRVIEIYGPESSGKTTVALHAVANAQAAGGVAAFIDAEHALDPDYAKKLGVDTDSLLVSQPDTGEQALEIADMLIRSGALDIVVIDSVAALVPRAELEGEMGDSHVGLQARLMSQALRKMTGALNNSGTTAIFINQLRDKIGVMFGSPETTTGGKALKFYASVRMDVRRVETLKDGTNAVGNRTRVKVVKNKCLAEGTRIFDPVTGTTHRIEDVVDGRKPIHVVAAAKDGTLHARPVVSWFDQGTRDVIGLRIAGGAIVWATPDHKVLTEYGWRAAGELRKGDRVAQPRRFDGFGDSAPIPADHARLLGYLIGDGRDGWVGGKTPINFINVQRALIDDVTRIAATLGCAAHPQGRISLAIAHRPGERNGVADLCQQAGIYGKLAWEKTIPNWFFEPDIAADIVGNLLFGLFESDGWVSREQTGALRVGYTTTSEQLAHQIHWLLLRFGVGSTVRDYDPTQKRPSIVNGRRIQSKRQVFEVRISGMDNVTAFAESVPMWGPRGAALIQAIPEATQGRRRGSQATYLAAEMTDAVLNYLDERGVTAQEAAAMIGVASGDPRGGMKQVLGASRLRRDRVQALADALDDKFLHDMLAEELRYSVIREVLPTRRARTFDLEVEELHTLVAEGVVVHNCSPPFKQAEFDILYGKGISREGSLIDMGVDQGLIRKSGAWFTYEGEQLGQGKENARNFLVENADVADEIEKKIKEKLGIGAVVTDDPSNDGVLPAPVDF

[4] = molecular target: T2, Replicative DNA helicase DnaB (Mycobacterium tuberculosis, UniProt P9WMR3); experiment: DnaB intein splicing inhibitors, dose response, biochemical, cell-free fluorescence (AID 449749); type: functional
T2 sequence (P9WMR3 whole entry): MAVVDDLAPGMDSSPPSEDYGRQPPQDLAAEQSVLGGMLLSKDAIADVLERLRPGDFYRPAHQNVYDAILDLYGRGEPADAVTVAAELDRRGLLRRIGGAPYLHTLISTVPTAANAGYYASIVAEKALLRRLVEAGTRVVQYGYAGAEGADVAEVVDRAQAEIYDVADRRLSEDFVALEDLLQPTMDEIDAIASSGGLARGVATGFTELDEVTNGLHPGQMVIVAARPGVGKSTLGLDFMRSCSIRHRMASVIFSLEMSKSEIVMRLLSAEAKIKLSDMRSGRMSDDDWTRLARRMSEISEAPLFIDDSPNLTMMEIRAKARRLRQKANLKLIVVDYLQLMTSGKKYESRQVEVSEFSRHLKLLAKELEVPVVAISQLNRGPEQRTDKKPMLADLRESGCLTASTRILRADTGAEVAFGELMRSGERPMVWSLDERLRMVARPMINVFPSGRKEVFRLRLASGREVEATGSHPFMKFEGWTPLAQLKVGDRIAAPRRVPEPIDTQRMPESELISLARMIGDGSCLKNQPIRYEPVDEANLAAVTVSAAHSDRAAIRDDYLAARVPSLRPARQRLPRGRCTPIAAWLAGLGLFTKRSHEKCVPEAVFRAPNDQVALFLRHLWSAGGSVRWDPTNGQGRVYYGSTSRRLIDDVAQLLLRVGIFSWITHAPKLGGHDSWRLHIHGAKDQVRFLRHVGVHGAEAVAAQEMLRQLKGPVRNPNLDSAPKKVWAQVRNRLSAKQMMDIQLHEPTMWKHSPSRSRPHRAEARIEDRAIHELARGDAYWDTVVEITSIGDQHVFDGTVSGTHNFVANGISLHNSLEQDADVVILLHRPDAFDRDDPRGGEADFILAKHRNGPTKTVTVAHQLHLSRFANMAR

Genome polyprotein = Genome polyprotein (dengue virus type 2, UniProt P29990); experiment: flavivirus cap methylation enzyme inhibition – biochemical, confirmation dose response, primary screen (AID 588689); type: functional
[5] = blockers of bursicon-stimulated LGR2 cAMP reporter – cell-based, HEK293, CRE-luciferase reporter, cherry pick, set 2, dose response (AID 743343); type: functional;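 further: transfected cells were stimulated with diluted bursicon conditioned medium after compound addition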
[6] = blockade of melanocortin 4 receptor signaling – cell-based, plate reader, cherry pick, counter-screen for LGR2 antagonist project, dose response (AID 743444); type: functional;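 further: transfected HEK 293 cells stimulated with alpha-MSH peptide; potency of inhibitors of the alpha-MSH evoked signal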
[7] = A549 cell cytotoxicity, dose response, cytotoxicity control, plate reader, cherry-pick, antagonist series (AID 743412); type: functional, cell-based
[8] = viability of uninfected HEp-2 cells – cell-based, HTS, cytotoxicity control for RSV inhibitor project, dose response (AID 2410); type: functional; details: human respiratory syncytial virus
HEK293 [9] = experiment: EBV LMP1 TES2 canonical NF-kB signalling blockers – cell-based, HEK293, luciferase, cherry-pick, dose response (AID 588343); type: functional; details: Homo sapiens
[10] = toxicity toward HepG2 liver cells – cell-based, plate reader, cherry-pick, antagonist series, cytotoxicity control, dose response (AID 743416); type: functional
P388/ADR = experiment: cells; type: functional; details: Mus musculus
SN12K1 = experiment: cells; type: functional; details: Homo sapiens
P388 = experiment: cells; type: functional; details: Mus musculus
[11] = OVCAR8 cell viability loss – plate reader, dry powder samples, PAX8 project, dose response (AID 743197); type: functional, cell-based; details: OVCAR-8
Paired box protein Pax-8 = Paired box protein Pax-8 (Homo sapiens, UniProt Q06710); experiment: PAX8 transcriptional activity inhibition in RMG-I – RMG-I cells, luciferase, cherry-pick, dose response (AID 687027); type: functional, cell-based;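 further: luciferase reporter driven by Pax8 target thyroperoxidase promoter measured by SteadyGlo luminescence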
Sequence of Paired box protein Pax-8 (Q06710 whole entry): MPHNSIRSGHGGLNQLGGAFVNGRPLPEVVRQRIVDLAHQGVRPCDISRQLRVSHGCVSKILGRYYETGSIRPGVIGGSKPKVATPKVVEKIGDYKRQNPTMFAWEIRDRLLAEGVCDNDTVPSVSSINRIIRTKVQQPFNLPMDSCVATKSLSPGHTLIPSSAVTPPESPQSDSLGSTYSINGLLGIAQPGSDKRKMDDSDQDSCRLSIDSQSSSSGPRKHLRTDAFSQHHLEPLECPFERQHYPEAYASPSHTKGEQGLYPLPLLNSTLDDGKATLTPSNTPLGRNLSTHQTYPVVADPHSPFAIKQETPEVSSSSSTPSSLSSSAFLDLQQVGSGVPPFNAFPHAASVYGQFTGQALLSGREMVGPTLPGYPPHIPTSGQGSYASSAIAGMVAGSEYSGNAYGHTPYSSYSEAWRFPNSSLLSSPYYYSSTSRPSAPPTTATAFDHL

[12] = molecular target: T3, Endoribonuclease toxin MazF (Escherichia coli K-12, UniProt P0AE70); experiment: substrate-only fluorescence increase artefacts – biochemical, single-stranded RNase substrate, counter-screen for MazEF activator project, dose response (AID 588502); type: functional
T3 sequence (P0AE70 whole entry): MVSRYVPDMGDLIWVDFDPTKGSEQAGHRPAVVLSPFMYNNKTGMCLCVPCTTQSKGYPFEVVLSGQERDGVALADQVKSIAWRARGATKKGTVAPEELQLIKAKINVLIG

[13] = molecular target: T3, Endoribonuclease toxin MazF; experiment: activation of MazEF endoribonuclease cleavage – biochemical, fluorescence, single-stranded RNA substrate, uHTS hits, dose response (AID 588481); type: functional
HEK293 [14] = experiment: cells; type: functional, cell-based; details: Homo sapiens
HEK293 [15] = experiment: cells; type: functional, cell-based; details: Homo sapiens; remark: listed apart in the source
HEK293 [16] = experiment: NOD2 signaling inhibitors in MDP-stimulated cells, cell-based, uHTS, luminescence (AID 2001); type: functional; details: Homo sapiens
HEK293 [17] = experiment: inhibition of NOD1-driven NF-kB reporter – cell-based, luminescence, uHTS, primary screen (AID 1578); type: functional; details: Homo sapiens

Sequence of Peroxisome proliferator-activated receptor gamma/Nuclear receptor coactivator 2 (P37231 whole entry): as the sequence (P37231 whole entry) above
Sequence of Peroxisome proliferator-activated receptor gamma/Nuclear receptor coactivator 2 (Q15596 whole entry, further chain): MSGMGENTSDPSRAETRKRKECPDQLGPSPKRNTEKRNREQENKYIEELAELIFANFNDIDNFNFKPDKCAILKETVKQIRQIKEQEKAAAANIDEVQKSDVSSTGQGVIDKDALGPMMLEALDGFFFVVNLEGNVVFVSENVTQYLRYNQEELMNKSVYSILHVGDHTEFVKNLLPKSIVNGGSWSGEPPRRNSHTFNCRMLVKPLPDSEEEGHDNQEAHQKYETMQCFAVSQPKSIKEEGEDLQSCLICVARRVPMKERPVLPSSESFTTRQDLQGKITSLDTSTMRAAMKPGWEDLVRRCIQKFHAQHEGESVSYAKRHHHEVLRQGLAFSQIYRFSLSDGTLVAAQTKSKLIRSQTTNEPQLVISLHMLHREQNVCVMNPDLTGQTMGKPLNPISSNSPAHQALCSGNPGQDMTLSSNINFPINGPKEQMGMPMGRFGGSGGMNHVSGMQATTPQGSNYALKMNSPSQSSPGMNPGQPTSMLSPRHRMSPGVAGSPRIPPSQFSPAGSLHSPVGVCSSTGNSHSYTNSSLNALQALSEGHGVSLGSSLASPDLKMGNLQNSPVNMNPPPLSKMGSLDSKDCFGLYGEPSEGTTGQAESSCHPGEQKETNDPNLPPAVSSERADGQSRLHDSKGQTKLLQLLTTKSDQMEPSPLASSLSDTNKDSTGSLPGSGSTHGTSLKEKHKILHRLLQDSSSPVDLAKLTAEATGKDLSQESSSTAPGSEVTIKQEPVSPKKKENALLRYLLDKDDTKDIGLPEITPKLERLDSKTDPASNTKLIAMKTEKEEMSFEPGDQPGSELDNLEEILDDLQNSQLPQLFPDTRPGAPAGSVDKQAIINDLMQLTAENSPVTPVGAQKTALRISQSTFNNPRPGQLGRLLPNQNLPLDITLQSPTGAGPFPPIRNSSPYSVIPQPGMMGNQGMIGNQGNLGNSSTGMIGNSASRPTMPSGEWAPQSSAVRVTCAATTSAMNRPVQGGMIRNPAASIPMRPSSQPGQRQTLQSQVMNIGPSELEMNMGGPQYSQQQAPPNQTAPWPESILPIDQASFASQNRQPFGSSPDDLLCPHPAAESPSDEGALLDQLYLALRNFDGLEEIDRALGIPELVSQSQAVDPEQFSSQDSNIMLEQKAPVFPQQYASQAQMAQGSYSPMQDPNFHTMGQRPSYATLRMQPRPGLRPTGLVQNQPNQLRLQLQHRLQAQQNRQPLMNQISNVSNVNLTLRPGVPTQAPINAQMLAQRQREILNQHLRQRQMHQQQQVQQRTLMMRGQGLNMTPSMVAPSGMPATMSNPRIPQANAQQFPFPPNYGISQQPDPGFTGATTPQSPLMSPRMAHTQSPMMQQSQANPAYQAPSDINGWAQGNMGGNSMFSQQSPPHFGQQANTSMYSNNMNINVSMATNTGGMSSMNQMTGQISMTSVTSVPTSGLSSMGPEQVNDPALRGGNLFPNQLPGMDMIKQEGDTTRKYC

CC(OC(=O)c1cc2sccc2n1C)C(=O)NCc1cccs1 (configuration not stated)
EC50 [1]: > 79.4 µM (not active)
EC50 [2]: > 79.4 µM (not active)
EC50 [3]: > 79.4 µM (not active)

O=C(CSc1ncnc2c1nnn2Cc1ccccc1F)N1CCN(c2ccccc2)CC1
EC50 [1]: > 79.4 µM (not active)
EC50 [2]: > 79.4 µM (not active)
EC50 (Protein RecA): 5.75 µM (active)
EC50 [3]: > 79.4 µM (not active)
AC50 [4]: 3.65 µM (active)

O=C(O)[C@H](Cc1ccccc1)N1C(=O)c2c(Cl)c(Cl)c(Cl)c(Cl)c2C1=O
IC50 (Genome polyprotein): 23.9 µM (active)

Cc1cccc(-n2ncc3c(N4CCOCC4)ncnc32)c1
AC50 [5]: 3.92 µM (active)
AC50 [6]: 3.94 µM (active)
AC50 [7]: > 52 µM (inactive)
CC50 [8]: 19.1 µM (active)
AC50 (HEK293 [9]): 1.36 µM (active)
AC50 [10]: > 52 µM (inactive)

CN(C)CCNC(=O)c1cccc2ccc(-c3ccc(Br)cc3)nc12
GI50 (P388/ADR): 0.512 µM (active)
GI50 (SN12K1): 0.895 µM (active)
GI50 (P388): 0.374 µM (active)

COc1ccc(C2COc3c(ccc(O)c3C)C2)cc1OC (configuration not stated)
GI50 (P388/ADR): 35.9 µM (inactive)
GI50 (SN12K1): 45.8 µM (inactive)
GI50 (P388): 40.9 µM (inactive)

O=C1C=CN(C2OC(CO)C(O)C2O)C(=O)C1 (configuration not stated)
GI50 (P388/ADR): 0.843 µM (active)
GI50 (P388): 0.718 µM (active)

CCCC#Cc1ccc2c(c1)O[C@H](CN(C)Cc1ccccc1)[C@@H](C)CN([C@H](C)CO)S2(=O)=O
AC50 [11]: 58.3 µM (active)
AC50 (Paired box protein Pax-8): 16.2 µM (active)

COC(=O)c1c(/N=C/N(C)C)sc2c1CCN(c1ncc(C(F)(F)F)cc1Cl)C2
EC50 [12]: > 99 µM (inactive)
EC50 [13]: > 99 µM (inactive)

CC(=O)OCC1OC(NC(=O)N(CCCl)N=O)C(OC(C)=O)C(OC(C)=O)C1OC(C)=O (configuration not stated)
GI50 (P388/ADR): 44.9 µM (inactive)
GI50 (SN12K1): > 100 µM (inactive)
GI50 (P388): 26.7 µM (inactive)

CN1CCN(c2ncnc3ccc(Br)cc23)CC1
IC50 (HEK293 [14]): > 20 µM (inactive)
IC50 (HEK293 [15]): 4.83 µM (active)
IC50 (HEK293 [16]): 6.08 µM (active)
EC50 (HEK293 [17]): 17.8 µM (active)

CC(=O)OC(C)(C)/C=C/C(=O)[C@](C)(O)[C@H]1[C@H](O)C[C@@]2(C)[C@@H]3CC=C4[C@@H](C=C(O)C(=O)C4(C)C)[C@]3(C)C(=O)C[C@]12C [CUCURBITACIN E]
GI50 (P388/ADR): 0.0375 µM (active)
GI50 (SN12K1): 0.0336 µM (active)
GI50 (P388): 0.0379 µM (active)

— ChEMBL document CHEMBL1201862, “PubChem BioAssay data set” (2004)
